According to patent US10221173B2, “Chemical compounds” (AstraZeneca AB, priority 2017, dated 2019):
≈ marks a conversion by molar mass, not a printed value.

Key:
[1] = Human plasma protein binding (equilibrium dialysis); type: in vitro ADME
hERG potassium channel = hERG potassium channel (Homo sapiens (Human), UniProt Q12809)
Description: The assay was conducted as follows with all reagents used at room temperature unless otherwise stated.
All compounds were acoustically dispensed in quadruplicate using a Labcyte Echo.
Calculation of results is performed using APC package within Genedata. For the routine normalization of well data with Neutral and Inhibitor control well groups as reference, GeneData Assay Analyzer uses the following equation to normalize the signal values to the desired signal range:
[formula] x is the measured raw signal value of a well is the median of the measured signal values for the Central Reference (Neutral) wells on a plate is the median of the measured signal values for the Scale Reference (Inhibitor) wells on a plate CR is the desired median normalized value for the Central Reference (Neutral) SR is the desired median normalized value for the Scale Reference (Inhibitor)

[2] = target: T1, Estrogen Receptor (ERα) in MCF-7 cells (Homo sapiens (Human), UniProt P03372); experiment: Western blotting assay, ER down-regulation in MCF-7; type: cell-based; conditions: MCF-7, 100 nM compound, 48 h, vs 100 nM fulvestrant
[3] = target: recombinant human Estrogen Receptor alpha ligand binding domain (ER alpha-LBD (GST)) (Homo sapiens (Human), UniProt P03372); experiment: ERα binding assay (LanthaScreen TR-FRET competition)
[4] = Thermodynamic solubility (shake-flask); type: physicochemical; conditions: aqueous phosphate buffer, 25 °C, pH 7.4, aqueous buffer, thermodynamic from solid, phosphate buffer pH 7.4, 24 hours
[5] = target: estrogen receptor (ERα) in CAMA-1 cells (Homo sapiens (Human), UniProt P03372); experiment: Western blotting assay, ER down-regulation in CAMA-1; type: cell-based; conditions: CAMA-1, 100 nM compound, 48 h, vs 100 nM fulvestrant
[6] = Log D (shake flask, 1-octanol/aqueous buffer); type: physicochemical; conditions: 1-octanol/aqueous buffer, pH 7.4, pH 7.4
[7] = target: T1, Estrogen Receptor (ERα) in MCF-7 cells; experiment: MCF-7 ER down-regulation assay (immuno-fluorescence); type: cell-based

Sequence of recombinant human Estrogen Receptor alpha ligand binding domain (ER alpha-LBD (GST)) (P03372 307-554): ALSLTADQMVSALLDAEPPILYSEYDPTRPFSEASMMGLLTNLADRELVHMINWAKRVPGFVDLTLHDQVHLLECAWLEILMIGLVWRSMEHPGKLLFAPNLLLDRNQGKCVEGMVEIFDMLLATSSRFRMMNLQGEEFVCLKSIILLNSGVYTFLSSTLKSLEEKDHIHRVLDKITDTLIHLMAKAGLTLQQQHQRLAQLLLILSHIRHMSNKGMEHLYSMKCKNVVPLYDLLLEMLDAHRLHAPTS
Sequence of hERG potassium channel (Q12809 whole entry): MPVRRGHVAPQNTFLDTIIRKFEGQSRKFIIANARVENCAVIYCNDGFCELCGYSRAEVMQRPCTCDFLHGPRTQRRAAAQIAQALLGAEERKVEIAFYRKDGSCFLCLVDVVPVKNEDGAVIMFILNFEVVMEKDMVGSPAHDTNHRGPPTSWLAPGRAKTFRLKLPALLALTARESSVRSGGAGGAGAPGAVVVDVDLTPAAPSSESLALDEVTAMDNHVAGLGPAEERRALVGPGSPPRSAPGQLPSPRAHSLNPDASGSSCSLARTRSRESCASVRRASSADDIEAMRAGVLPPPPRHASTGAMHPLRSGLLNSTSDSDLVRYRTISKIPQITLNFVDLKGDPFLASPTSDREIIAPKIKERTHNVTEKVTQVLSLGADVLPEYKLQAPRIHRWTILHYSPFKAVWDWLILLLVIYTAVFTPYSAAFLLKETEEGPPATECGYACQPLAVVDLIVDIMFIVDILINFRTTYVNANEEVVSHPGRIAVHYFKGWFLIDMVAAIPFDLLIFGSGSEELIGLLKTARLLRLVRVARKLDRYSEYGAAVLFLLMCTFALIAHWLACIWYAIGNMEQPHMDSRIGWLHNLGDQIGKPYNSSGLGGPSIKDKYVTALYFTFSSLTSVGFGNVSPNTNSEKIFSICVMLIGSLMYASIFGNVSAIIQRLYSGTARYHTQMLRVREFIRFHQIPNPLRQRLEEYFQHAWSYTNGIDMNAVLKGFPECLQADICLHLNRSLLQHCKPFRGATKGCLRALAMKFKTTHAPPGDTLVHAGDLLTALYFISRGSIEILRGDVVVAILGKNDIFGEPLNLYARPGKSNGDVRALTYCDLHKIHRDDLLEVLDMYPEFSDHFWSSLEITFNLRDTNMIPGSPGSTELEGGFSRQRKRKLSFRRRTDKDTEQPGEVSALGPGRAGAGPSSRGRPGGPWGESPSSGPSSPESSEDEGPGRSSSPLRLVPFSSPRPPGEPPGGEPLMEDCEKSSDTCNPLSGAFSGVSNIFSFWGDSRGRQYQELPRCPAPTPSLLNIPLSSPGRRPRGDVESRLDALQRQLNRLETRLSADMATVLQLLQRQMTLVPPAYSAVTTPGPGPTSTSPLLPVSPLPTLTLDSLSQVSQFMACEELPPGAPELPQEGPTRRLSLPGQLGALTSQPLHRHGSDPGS
T1 sequence (P03372 whole entry, the tested form may be a part): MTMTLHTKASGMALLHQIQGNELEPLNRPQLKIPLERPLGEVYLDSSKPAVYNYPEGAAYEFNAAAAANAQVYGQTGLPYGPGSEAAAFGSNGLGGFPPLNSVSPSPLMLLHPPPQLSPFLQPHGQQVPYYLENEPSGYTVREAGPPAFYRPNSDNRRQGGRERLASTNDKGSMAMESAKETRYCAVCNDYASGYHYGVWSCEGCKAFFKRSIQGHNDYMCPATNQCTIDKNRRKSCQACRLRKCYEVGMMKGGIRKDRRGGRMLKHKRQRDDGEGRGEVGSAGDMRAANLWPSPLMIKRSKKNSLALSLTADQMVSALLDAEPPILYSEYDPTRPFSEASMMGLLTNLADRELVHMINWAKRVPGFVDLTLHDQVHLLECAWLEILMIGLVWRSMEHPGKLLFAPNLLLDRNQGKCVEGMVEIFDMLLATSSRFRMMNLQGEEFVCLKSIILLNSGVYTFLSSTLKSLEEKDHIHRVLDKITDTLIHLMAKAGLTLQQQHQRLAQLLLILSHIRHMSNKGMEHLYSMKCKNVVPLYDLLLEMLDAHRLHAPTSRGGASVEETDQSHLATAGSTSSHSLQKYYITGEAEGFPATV
Sequence of estrogen receptor (ERα) in CAMA-1 cells (P03372 whole entry): as the sequence (P03372 whole entry, the tested form may be a part) above

SMILES | Human plasma protein binding (% free) [1] [% free] | IC50 (hERG potassium channel) [nM] | MCF7 Western % ER deg vs Fv [2] [%] | IC50 [3] [nM] | solubility at 24 h [4] [µM] | CAMA1 Western % ER deg vs Fv [5] [%] | logD [6] | IC50 [7] [nM]
C[C@@H]1Cc2c([nH]c3cc(F)ccc23)[C@@H](c2c(F)ccc(OCCNCCCF)c2F)N1CC(F)(F)CO [Example 61, 3-((1R,3R)-1-(2,6-difluoro-3-(2-((3-fluoropropyl)amino)ethoxy)phenyl)-7-fluoro-3-methyl-1,3,4,9-tetrahydro-2H-pyrido[3,4-b]indol-2-yl)-2,2-difluoropropan-1-ol] | 2.0 | 2700 | 94 | 0.79 | 446 (≈ 236 µg/mL) | 83 | 3 | 0.19
COc1ccc(NCCNCCCF)c(F)c1[C@@H]1c2[nH]c3ccccc3c2C[C@@H](C)N1CC(F)(F)F [Example 90, N1-(2-fluoro-4-methoxy-3-((1R,3R)-3-methyl-2-(2,2,2-trifluoroethyl)-2,3,4,9-tetrahydro-1H-pyrido[3,4-b]indol-1-yl)phenyl)-N2-(3-fluoropropyl)ethane-1,2-diamine] | 1.1 | 5000 | 76 | 0.65 | 365 (≈ 186 µg/mL) | 93 | 2.8 | 0.3
COc1ccc(OCCNCCCF)cc1[C@@H]1c2[nH]c3ccc(F)cc3c2C[C@@H](C)N1CC(F)(F)CO [Example 46, 2,2-difluoro-3-((1R,3R)-6-fluoro-1-(5-(2-((3-fluoropropyl)amino)ethoxy)-2-methoxyphenyl)-3-methyl-1,3,4,9-tetrahydro-2H-pyrido[3,4-b]indol-2-yl)propan-1-ol] | 2.4 | 2700 | 83 | 1 | 462 (≈ 242 µg/mL) | 89 | 2.8 | 0.22
C[C@@H]1Cc2c([nH]c3ccccc23)[C@@H](c2c(F)ccc(NCCNCCCF)c2F)N1CC(F)(F)F [Example 88, N1-(2,4-difluoro-3-((1R,3R)-3-methyl-2-(2,2,2-trifluoroethyl)-2,3,4,9-tetrahydro-1H-pyrido[3,4-b]indol-1-yl)phenyl)-N2-(3-fluoropropyl)ethane-1,2-diamine] | 0.58 | 4800 | 90 | 2.2 | 118 (≈ 58.8 µg/mL) | 93 | 3.4 | 0.28
COc1ccc(OCCNCCCF)cc1[C@@H]1c2[nH]c3ccccc3c2C[C@@H](C)N1CC(F)(F)F [Example 7, 3-Fluoro-N-(2-(4-methoxy-3-((1R,3R)-3-methyl-2-(2,2,2-trifluoroethyl)-2,3,4,9-tetrahydro-1H-pyrido[3,4-b]indol-1-yl)phenoxy)ethyl)propan-1-amine] | 1.5 | 3800 | 100 | 1.5 | 35 (≈ 17.3 µg/mL) | 90 | 3.7 | 0.12
C[C@@H]1Cc2c([nH]c3ccccc23)[C@@H](c2c(F)ccc(OCCNCCCF)c2F)N1CC1(F)COC1 [Example 13, N-(2-(2,4-difluoro-3-((1R,3R)-2-((3-fluorooxetan-3-yl)methyl)-3-methyl-2,3,4,9-tetrahydro-1H-pyrido[3,4-b]indol-1-yl)phenoxy)ethyl)-3-fluoropropan-1-amine] | 3.5 | 2600 | 83 | 1.6 | 493 (≈ 249 µg/mL) | 92 | 2.6 | 0.22
Cc1c(OCCNCCCF)ccnc1[C@@H]1c2[nH]c3ccccc3c2C[C@@H](C)N1CC(F)(F)CO [Example 96, 2,2-difluoro-3-((1S,3R)-1-(4-(2-((3-fluoropropyl)amino)ethoxy)-3-methylpyridin-2-yl)-3-methyl-1,3,4,9-tetrahydro-2H-pyrido[3,4-b]indol-2-yl)propan-1-ol] | 7.1 | 10000 | 94 | 1.4 | 960 (≈ 471 µg/mL) | 100 | 2.4 | 0.2
C[C@@H]1Cc2c([nH]c3ccccc23)[C@@H](c2nccc(OCCNCCCF)c2F)N1CC(F)(F)CO [Example 97, 2,2-difluoro-3-((1S,3R)-1-(3-fluoro-4-(2-((3-fluoropropyl)amino)ethoxy)pyridin-2-yl)-3-methyl-1,3,4,9-tetrahydro-2H-pyrido[3,4-b]indol-2-yl)propan-1-ol] | 6.8 | 18000 | 89 | 2.2 | > 1000 | 84 | 1.8 | 0.66
C[C@@H]1Cc2c([nH]c3cccc(F)c23)[C@@H](c2c(F)ccc(OCCNCCCF)c2F)N1CC(F)(F)CO [Example 62, 3-((1R,3R)-1-(2,6-difluoro-3-(2-((3-fluoropropyl)amino)ethoxy)phenyl)-5-fluoro-3-methyl-1,3,4,9-tetrahydro-2H-pyrido[3,4-b]indol-2-yl)-2,2-difluoropropan-1-ol] | 1.2 | 5000 | 95 | 0.71 | 302 (≈ 160 µg/mL) | 96 | 3.3 | 0.076
C[C@@H]1Cc2c([nH]c3ccc(F)cc23)[C@@H](c2c(F)ccc(OCCNCCCF)c2F)N1CC(F)(F)CO [Example 15, 3-((1R,3R)-1-(2,6-difluoro-3-(2-((3-fluoropropyl)amino)ethoxy)phenyl)-6-fluoro-3-methyl-1,3,4,9-tetrahydro-2H-pyrido[3,4-b]indol-2-yl)-2,2-difluoropropan-1-ol] | 3.2 | 4600 | 94 | 0.55 | 571 (≈ 302 µg/mL) | 91 | 2.9 | 0.079
C[C@@H]1Cc2c([nH]c3c(F)cccc23)[C@@H](c2c(F)ccc(OCCNCCCF)c2F)N1CC(F)(F)CO [Example 60, 3-((1R,3R)-1-(2,6-difluoro-3-(2-((3-fluoropropyl)amino)ethoxy)phenyl)-8-fluoro-3-methyl-1,3,4,9-tetrahydro-2H-pyrido[3,4-b]indol-2-yl)-2,2-difluoropropan-1-ol] | 1.9 | 4400 | 92 | 0.84 | 351 (≈ 186 µg/mL) | 97 | 3 | 0.12
C[C@@H]1Cc2c([nH]c3ccccc23)[C@@H](c2cc(OCCNCCCF)ccn2)N1CC(F)(F)F [Example 35, 3-fluoro-N-(2-((2-((1S,3R)-3-methyl-2-(2,2,2-trifluoroethyl)-2,3,4,9-tetrahydro-1H-pyrido[3,4-b]indol-1-yl)pyridin-4-yl)oxy)ethyl)propan-1-amine] | 5.4 | 5600 | 94 | 1.9 | 222 (≈ 103 µg/mL) | 92 | 3.1 | 1.1
C[C@@H]1Cc2c([nH]c3ccccc23)[C@@H](c2cc(OCCNCCCF)ccc2Cl)N1CC(F)(F)CO [Example 44, 3-((1R,3R)-1-(2-chloro-5-(2-((3-fluoropropyl)amino)ethoxy)phenyl)-3-methyl-1,3,4,9-tetrahydro-2H-pyrido[3,4-b]indol-2-yl)-2,2-difluoropropan-1-ol] | 2.3 | 2900 | 95 | 1 | 278 (≈ 142 µg/mL) | 94 | 3.3 | 0.14
C[C@@H]1Cc2c([nH]c3ccccc23)[C@@H](c2cc(OCCNCCCF)ccc2C#N)N1CC(F)(F)F [Example 23, 4-(2-((3-fluoropropyl)amino)ethoxy)-2-((1R,3R)-3-methyl-2-(2,2,2-trifluoroethyl)-2,3,4,9-tetrahydro-1H-pyrido[3,4-b]indol-1-yl)benzonitrile] | 3.7 | 5400 | 95 | 2.7 | 73 (≈ 35.7 µg/mL) | 95 | 3.4 | 0.5
C[C@@H]1Cc2c([nH]c3ccc(F)cc23)[C@@H](c2c(F)cnc(OCCNCCCF)c2F)N1CC(F)(F)CO [Example 65, 3-((1R,3R)-1-(3,5-difluoro-2-(2-((3-fluoropropyl)amino)ethoxy)pyridin-4-yl)-6-fluoro-3-methyl-1,3,4,9-tetrahydro-2H-pyrido[3,4-b]indol-2-yl)-2,2-difluoropropan-1-ol] | 1.9 | 9400 | 94 | 0.64 | 462 (≈ 245 µg/mL) | 97 | 3 | 0.058
